The test system of data set [1] is S. aureus (strain USA300). As to the kind of experiment: Transmission electron microscopy of treated cells. The note with it: 1× MIC, after 10 minutes, vs DMSO. Type of data set: cell-based. As to the method: FIGS. 6A, 6B and 6C illustrate transmission electron microscopy (TEM) imaging of MRSA USA300 treated with compounds 22 and 31.
Transmission electron microscopy (TEM) and fluorescence microscopy (FM) allowed Applicants to directly observe the effects of the novel 4-aminoquinolines […] 5-aminoquinolones on the cell morphology of staphylococci.
(§1) These cellular defects were not seen in any of the control cells treated with DMSO. Fluorescent microscopy was performed on a S. aureus (strain COL) strain after treatment with either DMSO, 31 or 123 for 30 minutes followed by staining with FM 4-64 (red membrane stain), bodipy-vancomycin (Van-FL, green stain), and Hoechst (blue DNA stain).

Data set [2] relates to sheep erythrocytes. As to the kind of experiment: in vitro. The format is cell-based. The note with it: for hemolysis: sheep, 32 μg/mL. As to the method:
(§2) FIG. 8 illustrates percent hemolysis analysis of sheep erythrocytes. Concentration-dependent hemolysis was measured by monitoring the optical density (OD)540 of PBS-washed sheep erythrocytes. Complete hemolysis (100%) was confirmed by treatment of erythrocytes with Triton X-100. Data points represent the mean±SD of triplicate experiments.
(§3) The macromolecular synthesis assay, TEM, and FM experiments were all consistent with membrane disruption. […] The high membrane selectivity of the 5-aminoquinolin-4-ones in this assay is impressive and is in accordance with the observed therapeutic index (CC50/MIC).

Data set [3] relates to E. faecium ATCC19579. Description: Antimicrobial susceptibility MIC, E. faecium ATCC19579. The format is cell-based. The note with it: Enterococcus faecium. The source says: (§4) The first set of compounds evaluated were analogs at the C-7 and C-8 positions of the initial quinolone hit DNAC-2 since the other HTS hits identified (data not shown) were substituted at these positions (Table 1). Applicants first explored modification at the C-7 position with a small series of electron-donating and withdrawing substituents. […] However, analogs containing electron donating groups at C-7 including ethyl 7, benzyloxy 8, methoxy 9 and methylthio 10 are weakly active displaying MICs of 320-640 μg/mL indicating electron-donating substituents at C-7 are poorly tolerated. […] The C-8 position was evaluated with trifluoromethyl 4 and trifluoromethoxy 5 containing the optimal C-7 substituents. Both 4 and 5 are equipotent to the corresponding C-7 analogs 2 and 3 indicating some flexibility of the quinolone scaffold.
(§5) The compounds maintain activity against Staphylococcus epidermidis; however, 31, 111 and 123 all lose considerable potency against Enterococcus faecalis and Enterococcus faecium, which contribute heavily, along with MRSA, to healthcare-associated infections.

Data set [4] relates to K. pneumonia 7117. Description: Antimicrobial susceptibility MIC, K. pneumonia 7117. Type of data set: cell-based. The note with it: Klebsiella pneumoniae; K. pneumonia strain 7117.
Text: as §4, §5

Data set [5] concerns E. faecalis SMC374. Description: Antimicrobial susceptibility MIC, E. faecalis SMC374. Type of data set: cell-based. The note with it: Enterococcus faecalis.
Text: as §4, §5

In data set [6] the test system is S. aureus (strain COL). Description: Fluorescent microscopy of membrane, cell wall and DNA. The format is cell-based. The note with it: 1× MIC, 30 minutes, vs DMSO. As to the method: FIGS. 7A and 7B illustrate fluorescent microscopy (FM) analysis of the membrane, cell wall, and DNA in MRSA. FM of COL MRSA strain treated with compound 123 (FIG. 7B, bottom row) at 1×MIC and DMSO (FIG. 7A, top row) for 30 minutes followed by staining with FM-64 (far left column, 0.5 μg/mL), VanFL (second column, 1 μg/mL), and Hoechst (third column, 1 μg/mL) for 5 minutes and washed with 1× phosphate buffered saline (PBS) before imaging (fourth column, overlay).
as §1

The test system of data set [7] is MRSA clinical strain S. aureus FPR3757. As to the kind of experiment: Minimum bactericidal concentration (MBC) against S. aureus FPR3757. Type of data set: cell-based.
The test system of data set [8] is C. albicans. As to the kind of experiment: Antimicrobial susceptibility, C. albicans. Type of data set: cell-based, Candida albicans. Particulars: highest concentration tested.
Text: as §5

In data set [9] the test system is methicillin-resistant S. aureus (FPR3757). Description: MIC against clinical MRSA strain FPR3757 in Mueller-Hinton broth (CLSI). The format is cell-based, Staphylococcus aureus.
Text: as §4

For data set [10], the system named is S. aureus NIH04008. Description: Antimicrobial susceptibility MIC, S. aureus NIH04008. The format is cell-based. Particulars: Staphylococcus aureus, NIH04008.
Text: as §4, §5

Data set [11] has as its system S. aureus (MRSA). As to the kind of experiment: In vitro time-kill assay. The format is cell-based. Particulars: 1× MIC, initial inoculum 10^5 CFU, plating over six hours. As to the method:
FIG. 4 illustrates in vitro time-kill analysis of methicillin resistant Staphylococcus aureus (MRSA). Bacterial killing was monitored by measuring the colony forming unit (CFU) for six hours when treated with compounds 22, 31, 117, and 123 at 1× the minimum inhibitory concentration (MIC) of each compound. The CFU at each time point was determined by plating and then compared to a dimethyl sulfoxide (DMSO) control.
While the MIC data confirmed that these compounds were at least bacteriostatic, Applicants wanted to test for bactericidal properties of both the aminoquinoline and aminoquinolone scaffolds. […] The kinetics of bacterial killing was assessed in vitro using time-kill assays by incubating compounds at 1× their MIC with an initial inoculum of 10^5 colony forming units (CFU) of S. aureus and removing aliquots at various time points to determine the residual CFU by plating.

Data set [12] deals with E. cloacae ND-21. As to the kind of experiment: Antimicrobial susceptibility MIC, E. cloacae ND-21. The format is cell-based. Particulars: Enterobacter cloacae, ND21; E. cloacae strain ND-21.
Text: as §4, §5

Data set [13] deals with E. coli DHMC-1. Description: Antimicrobial susceptibility MIC, E. coli DHMC-1. The format is cell-based. The note with it: Escherichia coli, DHMC1; E. coli strain DHMC-1.
Text: as §4, §5

Data set [14] has as its system Staphylococcus simulans. As to the kind of experiment: Macromolecular synthesis assays (radiolabeled precursor incorporation). The format is cell-based. An excerpt: FIG. 5 illustrates macromolecular synthesis assays (representative data with 123). Time-course for inhibition of incorporation of radiolabeled precursors [^3H]-L-isoleucine (protein), [^3H]-thymidine (DNA), [^3H]-uridine (RNA), and [^3H]-glucosamine (cell wall) in S. simulans by 123 at 0.5×, 1× and 5×MIC. Data are expressed as the percentage of inhibition relative to the DMSO only negative control. The positive control antibiotics denoted by closed circles were used at 10× MIC. Data represent the mean±standard deviation (SD) of triplicate experiments.
Classical macromolecular synthesis assays were performed to provide insight on the putative mechanism of action of the most promising quinoline 31 and quinolone 123 candidates. Disruption of bacterial membranes is not only rapid, but interferes with all major metabolic activities in the cell and is thus easily distinguished by macromolecular synthesis assays. […] The control antibiotics ciprofloxacin, rifampicin, vancomycin and tetracycline were included as inhibitors of DNA, RNA, cell wall, and protein synthesis, respectively. The cells were quenched at various time points with 10% trichloroacetic acid (TCA), filtered, washed and the amount of precursor incorporation was quantified by scintillation counting.

The subject of data set [15] is S. aureus MW2. As to the kind of experiment: Antimicrobial susceptibility MIC, S. aureus MW2. The format is cell-based. Particulars: Staphylococcus aureus, MW2.
Text: as §4, §5

For data set [16], the system named is clinical methicillin-resistant Staphylococcus aureus (MRSA) isolates. As to the kind of experiment: MIC against panel of MRSA / staphylococcal strains (text summaries). Type of data set: cell-based. The note with it: six S. aureus strains of Table 9, read-out: MIC towards all six S. aureus strains.
Text: as §4, §5

For data set [17], the system named is S. aureus membranes (versus erythrocyte membranes). Description: in vitro. The format is cell-based, sheep. Particulars: sheep. As to the method: as §2, §3
Data set [18] has as its system erythrocyte membranes (versus S. aureus membranes). As to the kind of experiment: in vitro. The note with it: sheep; read-out: selectivity for S. aureus membranes over erythrocyte membranes. The format is cell-based, sheep. As to the method: as §2, §3
Where [19] appears, read: Staphylococcus aureus, MRSA, MRSA clinical strain FPR3757, Mueller-Hinton broth, CLSI guidelines, complete inhibition of observable growth, read-out: MIC.

From patent US20220274927A1, “MEMBRANE-ACTIVE ANTI-BACTERIAL COMPOUNDS AND USES THEREOF” (Trustees of Dartmouth College, priority 2019, published 2022) come the findings set out here.

≈ marks a conversion by molar mass, not a printed value. Entries after “also recorded” stand apart in the source; their conditions may differ. Read-outs that look alike come from different tables or passages of the source.

In general, MIC refers to the least concentration at which growth counts as inhibited. With `FC(F)(F)c1ccc(Nc2cc(C(F)(F)F)nc3cc(C(F)(F)F)ccc23)nc1` [Compound 31], the “cell morphology in TEM images” value in data set [1] was “cross-wall-septum formation with reduced splitting; also recorded: mesosome-like membrane inclusions”. Besides, in [2], the hemolysis entry is “None of the compounds except 76, displayed any hemolysis”. The MIC is 0.25 to 1 µg/mL (≈ 0.588 to 2.35 µM) in [3] (E. faecium strain ATCC19579, read-out: MIC); more than 64 µg/mL in data set [4]; 2 µg/mL (≈ 4.7 µM) in data set [5] (E. faecalis strain SMC374, read-out: MIC); 0.25 µg/mL (≈ 0.588 µM) in data set [9] (setting [19]); 0.125 µg/mL (≈ 0.294 µM) in data set [10]; more than 64 µg/mL in [12]. The MIC is more than 64 µg/mL in [13], 0.125 µg/mL (≈ 0.294 µM) in data set [15] and 0.125 to 0.25 µg/mL (≈ 0.294 to 0.588 µM) in data set [16]. In addition, in data set [6], the “DNA and cell wall staining (Hoechst, Van-FL)” value is “little or no change compared to the DMSO control”. For the same compound, the “membrane staining (FM 4-64)” value in data set [6] is given as “membrane defects”. In addition, in data set [7], the “MBC relative to MIC” value is on record as “MBCs equal to their MIC values”. Further, the “MIC against C. albicans as multiple of MIC” value in [8] is reported as more than 16× × MIC. For the same compound, the “fold loss of potency (MIC) relative to the comparator” value in [9] (MRSA FPR3757 MIC ratio) worked out at 4 fold. Besides, in data set [11], the “time-kill: CFU reduction” value is listed as “reduced the CFU below the limit of detection at four to six hours”. Besides, the “inhibition of DNA, RNA, protein and cell-wall synthesis” value in [14] (0.5×, 1× and 5× MIC) was “concentration-dependent inhibition of DNA, RNA, protein and cell-wall synthesis”. Further, the “inhibition of macromolecular processes at 5× MIC” value in data set [14] (5× the MIC, DNA, RNA, protein, cell wall precursor incorporation) is given as “completely inhibited all macromolecular processes”.
For the compound `O=c1cc(C(F)(F)F)[nH]c2cc(C(F)(F)F)cc(Nc3ccc(Cl)c(Cl)c3)c12` [Compound 108], the selectivity ratio in data set [17] is more than 500. Besides, the MIC in data set [9] (setting [19]) was less than 0.06 µg/mL.
For the compound `FC(F)(F)c1ccc2c(Nc3ccc(Cl)c(Cl)c3)cc(C(F)(F)F)nc2c1` [Compound 22], the MIC was 0.125 µg/mL (≈ 0.294 µM) in [3] (ATCC19579); more than 4 µg/mL in [4]; 0.125 µg/mL (≈ 0.294 µM) in data set [5] (SMC374); 0.0625 µg/mL (≈ 0.147 µM) in data set [9] (Staphylococcus aureus, MRSA); 0.06 µg/mL (≈ 0.141 µM) in data set [9] (setting [19]); 0.125 µg/mL (≈ 0.294 µM) in [10]. Further, the MIC in data set [12] was more than 4 µg/mL; in [13], more than 4 µg/mL; in data set [15] it was 0.125 µg/mL (≈ 0.294 µM). In data set [7], the “MBC relative to MIC” value is listed as “MBCs equal to their MIC values”. The “MIC against C. albicans as multiple of MIC” value in [8] was more than 16× × MIC. Moreover, in data set [11], the “time-kill: CFU reduction” value is given as “reduced the CFU below the limit of detection at four to six hours”.
With `O=c1cc(C(F)(F)F)[nH]c2cc(C(F)(F)F)cc(Nc3ccc(F)c(F)c3)c12` [Compound 109], the selectivity ratio in data set [17] was more than 500. In data set [9] (setting [19]), the MIC was less than 0.06 µg/mL.
On to `O=c1cc(C(F)(F)F)[nH]c2cc(C(F)(F)F)cc(NC3CCC(C(F)(F)F)CC3)c12` (stereo not shown) [Compound 117], for which the selectivity ratio in data set [17] was more than 500. Besides, the hemolysis entry in data set [2] is on record as “None of the compounds except 76, displayed any hemolysis”. For the same compound, the MIC in data set [9] (setting [19]) is less than 0.06 µg/mL.
Turning to `O=c1cc(C(F)(F)F)[nH]c2cc(C(F)(F)F)cc(Nc3cccc(OC(F)(F)F)c3)c12` [Compound 110], the selectivity ratio in data set [18] was more than 500. For the same compound, in [9] (setting [19]), the MIC was in the range of 0.06 to 0.12 µg/mL (≈ 0.132 to 0.263 µM).
Turning to Triton X-100 [reference compound], in [2], the “lysis (positive control)” value was 100%.
Regarding `FC(F)(F)Oc1ccc2c(Nc3ccc(C(F)(F)F)cn3)cc(C(F)(F)F)nc2c1` [Compound 34], the MIC in data set [9] (MRSA clinical strain FPR3757, Mueller-Hinton broth, CLSI guidelines, complete inhibition of observable growth) was 1 µg/mL (≈ 2.27 µM); in [9] (setting [19]), 0.5 to 1 µg/mL (≈ 1.13 to 2.27 µM).
